Source: patent US8324166B2, “Neuroprotection using NAP-like and SAL-like peptide mimetics” (Ramot at Tel-Aviv University, Ltd., priority 2007, dated 2012)
Several values for one entry are separate records, joined by “and”; a condition that tells them apart may be missing. Identical values can stand only once. Entries after “also recorded” stand apart in the source; their conditions may differ.

Key:
[1] = system: cerebral cortical astrocytes intoxicated with ZnCl2; experiment: MTS assay: survival of astrocytes following intoxication with ZnCl2; format: cell-based, mice
Experimental: Cell cultures were prepared as previously described (McCarthy KD, de Vellis J., J. Cell Biol., 85:890-902 (1980); Gozes I et al., J. Pharmacol. Exp. Ther., 257:959-66 (1991)). Newborn mice (Harlan Biotech Israel Ltd., Rehovot, Israel) were sacrificed by decapitation and the brain was removed. The cortex was dissected and meninges were removed. The tissue was minced with scissors and placed in Hank's balanced salts solution X1 (HBSS, Biological Industries, Beit Haemek, Israel), 15 mM HEPES Buffer pH 7.3 (Biological Industries, Beit Haemek, Israel) and 0.25% trypsin (Biological Industries, Beit Haemek, Israel) in an incubator at 37° C. 10% CO2 for 20 minutes. The cells were then placed in 8 ml of solution D1 containing 10% heat inactivated fetal calf serum (Biological Industries, Beit Haemek, Israel), 0.1% gentamycin sulphate solution (Biological Industries, Beit Haemek, Israel) and 0.1% penicillin-streptomycin-nystatin solution (Biological Industries, Beit Haemek, Israel) in Dulbecco's modified Eagle's medium (DMEM, Sigma, Rehovot, Israel). The cells were allowed to settle, and were then transferred to a new tube containing 2.5 ml of D1 and triturated using a Pasteur pipette. The process was repeated twice more. Once all the cells were suspended, cell density was determined using a hemocytometer (Neubauer improved, Germany) and 1×10^6 cells/15 ml D1 were inoculated into each 75 cm^2 flask (Corning, Corning, N.Y., USA). Cells were incubated at 37° C. 10% CO2. The medium was changed after 24 hours and cells were grown until confluent (one week).
The flasks containing the cerebral cortical astrocytes were shaken to dislodge residual neurons and oligodendrocytes that may be present. Flasks were then washed with 10 ml cold HBSSx1, HEPES15 mM. 5 ml versene-trypsin solution (BioLab, Jerusalem, Israel) was added to each flask and the flasks were incubated at room temperature for 5 minutes to remove astrocytes. The flasks were then shaken to dislodge the cells. The versene-trypsin solution was neutralized with 5 ml D1. The cell suspension was collected and centrifuged at 100 g for 10 minutes. The supernatant was removed and the cells resuspended in D1. The cells were plated in 96 well plates (Corning, Corning, N.Y., USA) (each flask to 2 plates) and incubated until confluent at 37° C. 10% CO2.
The survival of astrocytes following intoxication with ZnCl2 was tested using the MTS assay. One week after sub-culturing the astrocytes into 96-well plates, the astrocyte growth medium was aspirated and fresh medium containing 200μM ZnCl2 and ascending concentrations of NATLSHIHQ (SEQ ID NO:4) or STPTAIPQ (SEQ ID NO:6)(concentration range: 10^−16-10^−7M) was added to the cells. The cells were incubated for 4 hours in 10% CO2 at 37°C., followed by an MTS assay using Celltiter 96 Aqueous non-radioactive cell proliferation assay (Promega, Madison, WI, USA) which was performed according to the manufacturer's instructions and read in an ELISA plate reader at 490nm.

[2] = molecular target: VQIVYK (peptide derived from third microtubule binding repeat of tau) (Homo sapiens, UniProt P10636); experiment: In vitro VQIVYK (tau-like) aggregation assay, Thioflavin S; format: biochemical; conditions: peptides 10^−17 M -10^−9 M; 100 μM VQIVYK, polyglutamate 250 μM, MOPS pH 6.5, 7 days; compared with NAP
Experimental: VQIVYK aggregation: Tau is a highly soluble protein. The unfolded protein lacks a defined 3D structure. Its main role is stabilization of microtubules in neuronal axons. Tau contains three or four microtubule binding repeats. ^306VQIVYK^311 is a peptide derived from the beginning of the third microtubule binding repeat of tau, which is present in all tau variants.
In vitro aggregation assay was performed in the presence of polyglutamic acid (or heparin), VQIVYK aggregates were further detected by Thioflavin S (excitation 485 nm and emission 535) with emission intensity greatly increasing.
First, different concentrations of polyglutamic acid (0,100 μM, 250 μM, 400 μM) VQIVYK and either […] (NH4Ac) 50 mM pH 6.5 or MOPS 20 mM pH 6.5 and Thioflavin S 5 μM were mixed together and incubated at room temperature. The extent of aggregation was read at excitation 485 nm and emission 535 nm using the infinite 200 system with the Magellan program.
In order to avoid reading self peptide aggregation as VQIVYK aggregation, for each peptide concentration, the fluorescence of the peptide solution without VQIVYK was subtracted from the fluorescence of each peptide concentration containing VQIVYK.

NATLSIHQ (synthetic NAP-like peptide)
effective concentrations on astrocyte survival: Astrocytes (200 μM ZnCl2) ([1]; MTS assay, 4 hours, tested 10^−16-10^−7M, significance vs negative control in cell): 10^−12 M and 10^−8 M and 10^−7 (p < 0.0005) M and 10^−10 (p < 0.05) M | activity in neuroprotection assay ([1]; astrocytes, ZnCl2): active | efficacy compared between peptides ([1]; survival of astrocytes): greater than that of STPTAIPQ | inhibition of VQIVYK (tau) aggregation [2]: superior to NAP; also recorded: superior effect than NAPVSIPQ
